Test results from patent US20110243924A1, “NOVEL METHODS” (priority 2007, published 2011).

Tests used:
[1] = target: T1, M1 human muscarinic receptor (Homo sapiens, UniProt P11229); assay: Binding of aclidinium metabolites to muscarinic receptors
T1 sequence (P11229 1-460): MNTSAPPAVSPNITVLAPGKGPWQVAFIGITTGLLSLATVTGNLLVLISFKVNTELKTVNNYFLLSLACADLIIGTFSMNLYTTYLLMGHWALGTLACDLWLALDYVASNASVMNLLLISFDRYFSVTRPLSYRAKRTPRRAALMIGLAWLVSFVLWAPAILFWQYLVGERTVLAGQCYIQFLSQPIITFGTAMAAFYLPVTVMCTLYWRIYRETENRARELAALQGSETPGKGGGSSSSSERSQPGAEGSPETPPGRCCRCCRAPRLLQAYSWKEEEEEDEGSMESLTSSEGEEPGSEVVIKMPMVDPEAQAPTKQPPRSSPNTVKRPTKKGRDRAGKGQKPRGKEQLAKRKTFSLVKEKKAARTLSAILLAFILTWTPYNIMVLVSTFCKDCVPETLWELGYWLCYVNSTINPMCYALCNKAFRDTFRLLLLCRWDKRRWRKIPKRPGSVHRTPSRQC
Experimental: (§1) Aclidinium is rapidly hydrolyzed in human plasma in its alcohol and acid metabolites. […] The plasma half life of aclidinium in plasma is lower than 5 minutes for human. Moreover, aclidinium is stable in acid aqueous solutions (pH≦4) and the hydrolytic cleavage of the ester bond takes place at neutral and basic pHs.

[2] = target: T2, M4 human muscarinic receptor (Homo sapiens, UniProt P08173); assay: as above
T2 sequence (P08173 1-479): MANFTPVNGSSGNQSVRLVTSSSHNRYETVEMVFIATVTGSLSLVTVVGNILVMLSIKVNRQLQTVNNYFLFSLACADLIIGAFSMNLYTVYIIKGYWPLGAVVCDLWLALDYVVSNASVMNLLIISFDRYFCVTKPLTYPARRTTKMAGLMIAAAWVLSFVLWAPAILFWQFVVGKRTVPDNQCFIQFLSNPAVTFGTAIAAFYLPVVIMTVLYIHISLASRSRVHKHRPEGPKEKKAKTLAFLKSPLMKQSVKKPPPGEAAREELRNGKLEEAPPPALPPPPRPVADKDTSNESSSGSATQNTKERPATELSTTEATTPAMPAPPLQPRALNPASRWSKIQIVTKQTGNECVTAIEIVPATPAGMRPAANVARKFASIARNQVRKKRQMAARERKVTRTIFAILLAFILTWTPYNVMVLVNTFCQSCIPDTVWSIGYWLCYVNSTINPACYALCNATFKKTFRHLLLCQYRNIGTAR
Experimental: as §1

[3] = target: M3 human muscarinic receptor (Homo sapiens, UniProt P20309); assay: as above
Experimental: as §1

[4] = target: T3, M2 human muscarinic receptor (Homo sapiens, UniProt P08172); assay: as above
T3 sequence (P08172 1-466): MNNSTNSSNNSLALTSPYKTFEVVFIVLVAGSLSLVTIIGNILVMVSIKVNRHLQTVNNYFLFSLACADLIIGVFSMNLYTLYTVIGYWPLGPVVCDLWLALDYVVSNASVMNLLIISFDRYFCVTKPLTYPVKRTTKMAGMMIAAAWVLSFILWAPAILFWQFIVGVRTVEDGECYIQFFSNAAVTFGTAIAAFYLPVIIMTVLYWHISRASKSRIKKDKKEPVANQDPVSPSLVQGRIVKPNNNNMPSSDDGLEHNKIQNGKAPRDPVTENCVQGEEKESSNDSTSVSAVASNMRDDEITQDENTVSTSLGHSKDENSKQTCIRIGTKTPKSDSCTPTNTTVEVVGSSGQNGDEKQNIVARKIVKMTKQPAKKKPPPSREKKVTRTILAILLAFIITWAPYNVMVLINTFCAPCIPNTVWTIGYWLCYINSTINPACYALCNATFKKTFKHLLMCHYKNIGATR
Experimental: as §1

Men with COPD = assay: Clinical Phase II study, single inhaled doses by dry powder inhaler; type: in vivo, human; details: for mean FEV1 AUC(0-24)/24: placebo 1.597 L
Description: Clinical Phase […] study: A double-blind, randothised, placebo-controlled, cross-over trial assesses the pharmacodynamics, pharmacokinetics and tolerability of aclidinium and its effects in COPD patients
Lung function measurements include FEV1 and FVC.

[5] = Stability in aqueous solutions; type: physicochemical; details: pH≦4
Experimental: as §1

healthy male volunteers = assay: Clinical Phase I study, single inhaled doses by dry powder inhaler; type: in vivo, human
Experimental: Clinical Phase I study: Aclidinium bromide is tested in a Phase I, double-blind, partial cross-over, placebo controlled study to assess the activity, pharmacokinetics and tolerability of aclidinium.
Methods: 12 healthy male volunteers are randomly assigned to 1 of 4 treatment sequences comprising single doses of aclidinium (50, 300 and 600 micrograms) or placebo administered by dry powder inhaler. The washout period between administrations is at least 6 days. Efficacy endpoints are specific airway conductance (sGaw), airway resistance (Raw) and bronchial hyperresponsiveness (PC35 sGaw methacholine).

[6] = In vitro stability in human plasma; type: in vitro ADME; details: human plasma (lithium heparin), 36° C.
Experimental: The in vitro experiments are carried out at 36° C. and at a concentration of 5 μg/ml (6 μl of a 1 mg/ml dimethyl sulfoxide solution of each substance is added to a final volume of 1.2 ml). After 3 minutes of pre-incubation, reaction is started by addition of the test substances. At pre-defined times of 0, 5, 15, 30 and 60 min., aliquots of 100 μl of the plasma are separated and the reaction stopped by the addition of 1 ml of a 20 mM, pH 4.0 sodium acetate buffer solution. The test substances are replaced with buffer for the control reactions. Human plasma is obtained from volunteers by written informed consent. The blood is collected in tubes containing lithium heparin as anticoagulant, immediately centrifuged at 4° C. and the resultant plasma stored at −20° C. when not in use.
Plasma samples, previously diluted with 1 ml of a 20 mM, pH 4.0 sodium acetate buffer solution, were loaded into the C2 cartridges. […] There are no significant endogenous peaks at retention times of the analytes that would interfere with their quantitation. […] The lower limit of quantitation is established at 5 mg/ml for all analytes.

[7] = after inhaled single doses 100, 300, 900 micrograms

Chain of M3 human muscarinic receptor (P20309 whole entry): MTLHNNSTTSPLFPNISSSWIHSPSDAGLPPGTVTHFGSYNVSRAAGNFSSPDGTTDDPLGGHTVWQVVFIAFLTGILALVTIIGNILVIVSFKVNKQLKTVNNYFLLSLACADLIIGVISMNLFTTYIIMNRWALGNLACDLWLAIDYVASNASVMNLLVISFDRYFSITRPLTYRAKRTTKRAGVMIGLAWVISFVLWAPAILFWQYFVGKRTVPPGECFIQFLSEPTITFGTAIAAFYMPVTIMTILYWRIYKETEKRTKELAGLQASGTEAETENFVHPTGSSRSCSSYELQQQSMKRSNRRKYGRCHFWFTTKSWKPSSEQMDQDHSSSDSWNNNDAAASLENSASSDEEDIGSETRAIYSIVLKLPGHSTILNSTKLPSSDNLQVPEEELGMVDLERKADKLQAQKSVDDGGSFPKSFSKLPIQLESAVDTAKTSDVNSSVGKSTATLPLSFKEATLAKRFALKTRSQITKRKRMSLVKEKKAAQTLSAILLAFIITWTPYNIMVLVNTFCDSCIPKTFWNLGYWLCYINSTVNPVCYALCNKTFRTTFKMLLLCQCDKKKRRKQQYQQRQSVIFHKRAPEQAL

Row | Structure (SMILES) | affinity for M1 human muscarinic receptor [1] | affinity for M4 human muscarinic receptor [2] | affinity for M3 human muscarinic receptor [3] | affinity for M2 human muscarinic receptor [4] | plasma levels (Men with COPD; following the 900 microgram dose) | stability in acid aqueous solutions [5] | mean FEV1 AUC(0-24)/24 (Men with COPD; aclidinium 100 micrograms, p=0.002) [L] | mean FEV1 AUC(0-24)/24 (Men with COPD; aclidinium 300 micrograms, p<0.0001) [L] | mean FEV1 AUC(0-24)/24 (Men with COPD; aclidinium 900 micrograms) [L] | plasma levels (Men with COPD; [7]) | cases of mildly increased sweating possibly related to treatment (Men with COPD; human, in vivo) | tolerability (Men with COPD; single inhaled doses 100-900 micrograms) | cases of mild or moderate headache possibly related to treatment (Men with COPD; vs 2 with placebo) [cases] | PC35 sGaw methacholine (methacholine dose required to decrease sGaw) (healthy male volunteers; aclidinium 300 micrograms, at 2 h, placebo 35.5) [mg/mL] | PC35 sGaw methacholine (methacholine dose required to decrease sGaw) (healthy male volunteers; aclidinium 300 micrograms, at 24 h, placebo 27.1) [mg/mL] | PC35 sGaw methacholine (methacholine dose required to decrease sGaw) (healthy male volunteers; aclidinium 600 micrograms, at 2 h, placebo 35.5) [mg/mL] | PC35 sGaw methacholine (methacholine dose required to decrease sGaw) (healthy male volunteers; aclidinium 600 micrograms, at 24 h, placebo 27.1) [mg/mL] | detection in plasma (healthy male volunteers; after inhaled single doses 50-600 micrograms) | study-drug-related adverse events (healthy male volunteers; single inhaled doses 50-600 micrograms) | half-life at 5 μg/ml [6] [min]
1 | O=C(O)C(O)(c1cccs1)c1cccs1 [acid metabolite] | devoid of significant affinity | devoid of significant affinity | devoid of significant affinity | devoid of significant affinity | low levels | – | – | – | – | – | – | – | – | – | – | – | – | – | – | –
2 | O=C(O[C@H]1C[N+]2(CCCOc3ccccc3)CCC1CC2)C(O)(c1cccs1)c1cccs1 [aclidinium, 3(R)-(2-hydroxy-2,2-dithien-2-ylacetoxy)-1-(3-phenoxypropyl)-1-azoniabicyclo[2.2.2]octane] | – | – | – | – | – | stable | 1.800 | 1.798 | 1.827 | No plasma levels | 1 | well tolerated | 6 | 207.1 | 142.7 | 256.0 | 181.7 | Neither aclidinium nor its metabolites are detected | no study-drug-related adverse events | < 5
3 | O[C@H]1C[N+]2(CCCOc3ccccc3)CCC1CC2 [alcohol metabolite] | devoid of significant affinity | devoid of significant affinity | devoid of significant affinity | devoid of significant affinity | – | – | – | – | – | No plasma levels | – | – | – | – | – | – | – | – | – | –
